Results: patent US6782895B2, “Compositions comprising at least one hydroxide compound and at least one complexing agent, and methods for using the same” (L'Oreal, S.A., priority 2001, dated 2004)
Structures can show the parent of a compound that is named as a salt. Where two headings read alike, the source gives them in different places. Values belong to the molecule of their own block, whether it stands above or below them.

What was measured:
[1] = Relaxing efficiency (% RE) of hair swatch after treatment, 24 hours at 90% RH
Method: A naturally kinky hair swatch was relaxed using a composition comprising at least one hydroxide composition comprising at least one hydroxide compound and at least one activating composition comprising at least one complexing agent according to the present invention. The relaxed hair swatch was then rinsed, shampooed, and then placed in the humidity chamber at 90% Relative Humidity (% RH) for 24 hours. The percent Relaxing Efficiency (% RE) is defined as:
Lf=length of the relaxed hair after 24 hours at 90% RH
Lt=length of the hair at the straight configuration
This mucic acid sodium salt slurry was mixed with 6 g of a 7% calcium hydroxide cream. The calcium hydroxide cream contained the following ingredients by weight, relative to the total weight of the cream:
The mixture of mucic acid sodium salt slurry and calcium hydroxide cream was applied to naturally kinky hair for 30 minutes. The treated hair was shampooed and then placed in a humidity chamber at 90% RH for 24 hours.

[2] = Solubility; format: physicochemical
[3] = for Appearance / pH: 3 g VERSENE 220 in 97 g water
Method: The present invention also provides for a simple screening test, which may be used to determine the applicability of a complexing agent for use as the at least one complexing agent in the lanthionizing compositions of the present invention.
A screening test to determine the applicability of a complexing agent for use in the lanthionizing compositions of the present invention was carried out.

[4] = Generation of hydroxide ions from mucic acid sodium salt slurry and calcium hydroxide (pH measurement); format: physicochemical; conditions: 7 g mucic acid + 2.66 g sodium hydroxide slurry
Method: An incremental amount of calcium hydroxide was then added slowly to the slurry of mucic acid sodium salt, and the pH was measured.

solubility in organic solvents ([2]; most organic solvents, for example alcohols and ethers): insoluble
solubility in water (salt form) ([2]; water at high pH): about 0.7%
SMILES: O=C(O)C(O)C(O)C(O)C(O)C(=O)O (stereo not shown) [Mucic Acid, 1,2,3,4-tetrahydroxy-1,4-butane dicarboxylic acid]
% RE ([1]; curly hair, 6 g 7% calcium hydroxide cream, 1:0.7 molar ratio calcium hydroxide:mucic acid, 2 g water in mucic acid salt slurry): 42%
% RE ([1]; curly hair, 6 g 7% calcium hydroxide cream, 1:0.7 molar ratio calcium hydroxide:mucic acid, 3 g water in mucic acid salt slurry): 88%
% RE ([1]; curly hair, 6 g 7% calcium hydroxide cream, 1:0.7 molar ratio calcium hydroxide:mucic acid, 4 g water in mucic acid salt slurry): 95%
% RE ([1]; curly hair, 6 g 7% calcium hydroxide cream, 1:0.7 molar ratio calcium hydroxide:mucic acid, 5 g water in mucic acid salt slurry): 98%
% RE ([1]; curly hair, 6 g 7% calcium hydroxide cream, 1:0.7 molar ratio calcium hydroxide:mucic acid, 6 g water in mucic acid salt slurry): 99%
% RE ([1]; naturally kinky hair, 30 minutes, 6 g 7% Ca(OH)2 cream, 0.36 g mucic acid, 0.27 g 50% NaOH, 3 g water, molar ratio calcium hydroxide:mucic acid 1:0.3): 54%
% RE ([1]; naturally kinky hair, 30 minutes, 6 g 7% Ca(OH)2 cream, 0.48 g mucic acid, 0.37 g 50% NaOH, 3 g water, molar ratio calcium hydroxide:mucic acid 1:0.4): 81%
% RE ([1]; naturally kinky hair, 30 minutes, 6 g 7% Ca(OH)2 cream, 0.60 g mucic acid, 0.46 g 50% NaOH, 3 g water, molar ratio calcium hydroxide:mucic acid 1:0.5): 80%
% RE ([1]; naturally kinky hair, 30 minutes, 6 g 7% Ca(OH)2 cream, 0.84 g mucic acid, 0.64 g 50% NaOH, 3 g water, molar ratio calcium hydroxide:mucic acid 1:0.7): 86%
% RE ([1]; naturally kinky hair, 30 minutes, 6 g 7% Ca(OH)2 cream, 1.19 g mucic acid, 0.9 g 50% NaOH, 3 g water, molar ratio calcium hydroxide:mucic acid 1:1): 21%

SMILES: O=C([O-])CN(CCN(CC(=O)[O-])CC(=O)[O-])CC(=O)[O-].[Na+].[Na+].[Na+].[Na+] [Na4EDTA, tetrasodium EDTA]
amount of Ca(OH)2 dissolved in the solution at the end of the reaction ([3]; 3 g VERSENE 220 (0.0066 moles) in 97 g water): 0.60 g
Appearance ([3]; 0 g Ca(OH)2 added): Clear
pH ([3]; 0 g Ca(OH)2 added): 11.62
Appearance ([3]; 0.20 g Ca(OH)2 added): Clear
pH ([3]; 0.20 g Ca(OH)2 added): 13.32
Appearance ([3]; 0.40 g Ca(OH)2 added): Clear
pH ([3]; 0.40 g Ca(OH)2 added): 13.52
Appearance ([3]; 0.60 g Ca(OH)2 added): Clear
pH ([3]; 0.60 g Ca(OH)2 added): 13.59
Appearance ([3]; 0.65 g Ca(OH)2 added): Cloudy
pH ([3]; 0.65 g Ca(OH)2 added): 13.63

pH ([4]; 0.0 g calcium hydroxide added): 12.39
pH ([4]; 0.2 g calcium hydroxide added): 13.02
pH ([4]; 0.4 g calcium hydroxide added): 13.32
pH ([4]; 0.6 g calcium hydroxide added): 13.46
pH ([4]; 0.8 g calcium hydroxide added): 13.51
pH ([4]; 1.0 g calcium hydroxide added): 13.53
pH ([4]; 1.2 g calcium hydroxide added): 13.55
observation upon mixing with calcium hydroxide ([2]; mucic acid sodium salt mixed with calcium hydroxide): precipitation was observed
SMILES: O=C(O)[C@@H](O)[C@H](O)[C@H](O)[C@@H](O)C(=O)O [mucic acid sodium salt]
